Experimental data reported in patent US8592456B2 (4SC Discovery GmbH, priority 2011, dated 2013).

test system: PBMC (T cell proliferation); assay: T cell proliferation assay, PHA-stimulated human PBMC (BrdU ELISA); format: cell-based; details: PHA-stimulated human PBMC, 48 hours, BrdU; column D; activity classes 1-4; read-out: IC50 (Tcell proliferation)
Summary of the method: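 Healthy-donor human PBMC, Ficoll-isolated, seeded 1×10^5 cells/well in RPMI1640 with 10% dialyzed FCS, stimulated with 2 μg/ml PHA alongside test compound. Proliferation read after 48 hours by BrdU ELISA.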

**Q.** With `Fc1ccccc1-n1ncc(-c2onc(-c3c(F)cccc3Cl)c2-c2cnco2)c1C(F)(F)F` [IB-28, 3-(2-chloro-6-fluorophenyl)-5-(1-(2-fluorophenyl)-5-(trifluoromethyl)-1H-pyrazol-4-yl)-4-(oxazol-5-yl)isoxazole] as the compound, how does the IC50 read?
**A.** The IC50 was 100 to 1000 nM.

**Q.** With `Fc1cccc(Cl)c1-c1noc(-c2cnn(-c3cccc(Cl)c3)c2C(F)(F)F)c1-c1cnco1` [Example I-8, 3-(2-chloro-6-fluorophenyl)-5-(1-(3-chlorophenyl)-5-(trifluoromethyl)-1H-pyrazol-4-yl)-4-(oxazol-5-yl)isoxazole] as the compound, how does the IC50 read?
**A.** The IC50 was under 10 nM.

**Q.** How did the IC50 turn out when `Fc1cccc(Cl)c1-c1noc(-c2cnn(-c3ccccn3)c2C(F)(F)F)c1-c1nnco1` [IB-25, 2-(3-(2-chloro-6-fluorophenyl)-5-(1-(pyridin-2-yl)-5-(trifluoromethyl)-1H-pyrazol-4-yl)isoxazol-4-yl)-1,3,4-oxadiazole] was run?
**A.** Its IC50 is 10 to 100 nM.

**Q.** Which IC50 does the source give for `Cc1nnc(-c2c(-c3c(F)cccc3Cl)noc2-c2cnn(-c3ccccc3F)c2C(F)(F)F)o1` [Example I-11, 2-(3-(2-chloro-6-fluorophenyl)-5-(1-(2-fluorophenyl)-5-(trifluoromethyl)-1H-pyrazol-4-yl)isoxazol-4-yl)-5-methyl-1,3,4-oxadiazole] here?
**A.** The IC50 was 100 to 1000 nM.

**Q.** With `Fc1cccc(Cl)c1-c1noc(-c2cnn(-c3ccncc3)c2C(F)(F)F)c1-c1ccoc1` [IB-24, 3-(2-chloro-6-fluorophenyl)-4-(furan-3-yl)-5-(1-(pyridin-4-yl)-5-(trifluoromethyl)-1H-pyrazol-4-yl)isoxazole] as the compound, how does the IC50 read?
**A.** Its IC50 is 10 to 100 nM.

**Q.** For `Cc1nnc(-c2c(-c3c(F)cccc3Cl)noc2-c2cnn(-c3cccnc3)c2C(F)(F)F)s1` [IB-21, 3-(2-chloro-6-fluorophenyl)-4-(5-methyl-1,3,4-thiadiazol-2-yl)-5-(1-(pyridin-3-yl)-5-(trifluoromethyl)-1H-pyrazol-4-yl)isoxazole], which IC50 is on record?
**A.** Its IC50 is 10 to 100 nM.

same assay, conditions: human PBMC, 2 μg/ml PHA, 48 hours, BrdU; read-out: D: IC50 (Tcell proliferation)

**Q.** With `COC(=O)c1c(-c2ccccc2Cl)noc1-c1cnn(-c2cccc(Cl)c2)c1C(F)(F)F` [Example B-71, methyl 3-(2-chlorophenyl)-5-(1-(3-chlorophenyl)-5-(trifluoromethyl)-1H-pyrazol-4-yl)isoxazole-4-carboxylate] as the compound, how does the IC50 read?
**A.** Its IC50 is under 10 nM.

**Q.** With `COC(=O)c1c(-c2c(F)cccc2Cl)noc1-c1cnn(-c2onc(-c3ccc(Cl)cc3)c2C(=O)OC)c1C(F)(F)F` [Example 131, methyl 3-(2-chloro-6-fluorophenyl)-5-{[1-(4-methoxycarbonyl-3-(4-chlorophenyl)isoxazol-5-yl)-5-trifluoromethyl-1H-pyrazol-4-yl]}-isoxazole-4-carboxylate] as the compound, how does the IC50 read?
**A.** The IC50 was 1000 to 10000 nM.

**Q.** `CCOC(=O)c1c(-c2c(F)cccc2Cl)noc1-c1cnn(-c2cccc(NC(C)=O)c2)c1C(F)(F)F` [Example B-70, ethyl 5-(1-(3-acetamidophenyl)-5-(trifluoromethyl)-1H-pyrazol-4-yl)-3-(2-chloro-6-fluorophenyl)isoxazole-4-carboxylate] was tested. Which IC50 did it give?
**A.** Its IC50 is 10 to 100 nM.

**Q.** `COC(=O)c1c(-c2c(F)cccc2Cl)noc1-c1cnn(-c2ccccc2)c1C(F)(F)F` [Example 48, methyl 3-(2-chloro-6-fluorophenyl)-5-(1-phenyl-5-(trifluomethyl)1H-pyrazol-4-yl)isoxazole-4-carboxylate] was tested. Which IC50 did it give?
**A.** The IC50 was 10 to 100 nM.

**Q.** For `CCOC(=O)c1c(-c2ccncc2F)noc1-c1cnn(-c2cccnc2)c1C(F)(F)F` [Example B-17, ethyl 3-(3-fluoropyridin-4-yl)-5-(1-(pyridin-3-yl)-5-(trifluoromethyl)-1H-pyrazol-4-yl)isoxazole-4-carboxylate], which IC50 is on record?
**A.** Its IC50 is 1000 to 10000 nM.

**Q.** With `O=C(c1c(-c2c(F)cccc2Cl)noc1-c1cnn(-c2ccccc2Cl)c1C(F)(F)F)N1CCCO1` [Example B-49, (3-(2-chloro-6-fluorophenyl)-5-(1-(2-chlorophenyl)-5-(trifluoromethyl)-1H-pyrazol-4-yl)isozazol-4-yl)(isoxazolidin-2-yl)methanone] as the compound, how does the IC50 read?
**A.** Its IC50 is 1000 to 10000 nM.

**Q.** `CCOC(=O)c1c(-c2ccncc2F)noc1-c1cnn(-c2cccc(Cl)c2)c1C(F)(F)F` [Example B-4, ethyl 5-(1-(3-chlorophenyl)-5-(trifluoromethyl)-1H-pyrazol-4-yl)-3-(3-fluoropyridin-4-yl)isoxazole-4-carboxylate] was tested. Which IC50 did it give?
**A.** The IC50 was 1000 to 10000 nM.

**Q.** How did the IC50 turn out when `CCOC(=O)c1c(-c2ccncc2F)noc1-c1cnn(-c2ccccc2F)c1C(F)(F)F` [Example B-15, ethyl 5-(1-(2-fluorophenyl)-5-(trifluoromethyl)-1H-pyrazol-4-yl)-3-(3-fluoropyridin-4-yl)isoxazole-4-carboxylate] was run?
**A.** The IC50 was 100 to 1000 nM.

**Q.** `CCOC(=O)c1c(-c2c(Cl)cncc2Cl)noc1-c1cnn(-c2cccc(Cl)c2)c1C(F)(F)F` [Example B-7, ethyl 5-(1-(3-chlorophenyl)-5-(trifluoromethyl)-1H-pyrazol-4-yl)-3-(3,5-dichloropyridin-4-yl)isoxazole-4-carboxylate] was tested. Which IC50 did it give?
**A.** Its IC50 is 1000 to 10000 nM.

**Q.** `CCOC(=O)c1c(-c2ccccc2Cl)noc1-c1cnn(-c2cccc(Cl)c2)c1C(F)(F)F` [Example B-41, ethyl 3-(2-chlorophenyl)-5-(1-(3-chlorophenyl)-5-(trifluoromethyl)-1H-pyrazol-4-yl)-isoxazole-4-carboxylate] was tested. Which IC50 did it give?
**A.** Its IC50 is 10 to 100 nM.

**Q.** For `COC(=O)c1c(-c2ccccc2)noc1-c1cnn(-c2ccccc2F)c1C(F)(F)F` [Example 61, methyl 5-(1-(2-fluorophenyl)-5-(trifluoromethyl)-1H-pyrazol-4-yl)-3-phenylisoxazole-4-carboxylate], which IC50 is on record?
**A.** Its IC50 is 1000 to 10000 nM.

**Q.** For `CON(C)C(=O)c1c(-c2ccccc2Cl)noc1-c1cnn(-c2cccc(Cl)c2)c1C(F)(F)F` [Example B-64, 3-(2-chlorophenyl)-5-(1-(3-chlorophenyl)-5-(trifluoromethyl)-1H-pyrazol-4-yl)-N-methoxy-N-methylisoxazole-4-carboxamide], which IC50 is on record?
**A.** The IC50 was 100 to 1000 nM.

**Q.** How did the IC50 turn out when `CCOC(=O)c1c(-c2onc(-c3c(F)cccc3Cl)c2C(=O)OC)cnn1-c1ccccc1F` [Example 41, methyl 3-(2-chloro-6-phenyl)-5-(5-(ethoxycarbonyl)-1-(2-fluorophenyl)-1H-pyrazol-4-yl)isoxazole-4-carboxylate] was run?
**A.** The IC50 was 100 to 1000 nM.

**Q.** With `Fc1ccc(-n2ncc(-c3onc(-c4c(F)cccc4Cl)c3Br)c2C(F)(F)F)cc1` [Example B-28, 4-bromo-3-(2-chloro-6-fluorophenyl)-5-(1-(4-fluorophenyl)-5-(trifluoromethyl)-1H-pyrazol-4-yl)isoxazole] as the compound, how does the IC50 read?
**A.** The IC50 was 100 to 1000 nM.

**Q.** How did the IC50 turn out when `CNC(=O)c1c(-c2ccccc2Cl)noc1-c1cnn(-c2cccc(F)c2)c1C(F)(F)F` [Example 96, 3-(2-chlorophenyl)-5-(1-(3-fluorophenyl)-5-(trifluoro-methyl)-1H-pyrazol-4-yl)-N-methylisoxazole-4-carboxamide] was run?
**A.** Its IC50 is 100 to 1000 nM.

**Q.** `CCOC(=O)c1c(-c2c(F)cccc2Cl)noc1-c1cnn(-c2ccccc2F)c1C(F)(F)F` [Example 42, Ethyl 3-(2-chloro-6-fluorophenyl)-5-[1-(2-fluorophenyl)-5-(trifluoromethyl)-1H-pyrazol-4-yl]isoxazole-4-carboxylate] was tested. Which IC50 did it give?
**A.** Its IC50 is 10 to 100 nM.

**Q.** Which IC50 does the source give for `CC(C)NS(=O)(=O)c1cccc(-n2ncc(-c3onc(-c4c(F)cccc4Cl)c3C(=O)OC(C)C)c2C(F)(F)F)c1` [Example B-79, isopropyl 3-(2-chloro-6-fluorophenyl)-5-(1-(3-(N-isopropylsulfamoyl)phenyl)-5-(trifluoromethyl)-1H-pyrazol-4-yl)isoxazole-4-carboxylate] here?
**A.** Its IC50 is 100 to 1000 nM.

**Q.** `CNC(=O)c1c(-c2c(F)cccc2Cl)noc1-c1cnn(-c2ccc(F)cc2F)c1C(F)(F)F` [Example 57, 3-(2-chloro-6-fluorophenyl)-5-(1-(2,4-difluorophenyl)-5-(trifluoromethyl)-1H-pyrazol-4-yl)-N-methylisoxazole-4-carboxamide] was tested. Which IC50 did it give?
**A.** The IC50 was 1000 to 10000 nM.

**Q.** For `CCOC(=O)c1c(-c2onc(-c3c(F)cccc3Cl)c2C(=O)OC)cnn1-c1ccc(Cl)cc1Cl` [Example 6, methyl 3-(2-chloro-6-fluorophenyl)-5-(1-(2,4-dichlorophenyl)-5-(ethoxycarbonyl)-1H-pyrazol-4-yl)isoxazole-4-carboxylate], which IC50 is on record?
**A.** The IC50 was 1000 to 10000 nM.

**Q.** `CCOC(=O)c1c(-c2c(F)cccc2Cl)noc1-c1cnn(CCOC)c1C(F)(F)F` [Example B-2, ethyl 3-(2-chloro-6-fluorophenyl)-5-(1-(2-methoxyethyl)-5-(trifluoromethyl)-1H-pyrazol-4-yl)isoxazole-4-carboxylate] was tested. Which IC50 did it give?
**A.** Its IC50 is 1000 to 10000 nM.

**Q.** With `CCOC(=O)c1c(-c2c(F)cccc2Cl)noc1-c1cnn(-c2ccc([N+](=O)[O-])cc2)c1C(F)(F)F` [Example B-94, ethyl 3-(2-chloro-6-fluorophenyl)-5-(1-(4-nitrophenyl)-5-(trifluoromethyl)-1H-pyrazol-4-yl)isoxazole-4-carboxylate] as the compound, how does the IC50 read?
**A.** Its IC50 is 1000 to 10000 nM.

**Q.** `CCOC(=O)c1c(-c2c(Cl)cncc2Cl)noc1-c1cnn(-c2ccccn2)c1C(F)(F)F` [Example B-5, ethyl 3-(3,5-dichloropyridin-4-yl)-5-(1-(pyridin-2-yl)-5-(trifluoromethyl)-1H-pyrazol-4-yl)isoxazole-4-carboxylate] was tested. Which IC50 did it give?
**A.** The IC50 was 1000 to 10000 nM.

**Q.** With `O=C(c1c(-c2c(F)cccc2Cl)noc1-c1cnn(-c2ccccc2F)c1C(F)(F)F)N1CCCO1` [Example B-52, (3-(2-chloro-6-fluorophenyl)-5-(1-(2-fluorophenyl)-5-(trifluoromethyl)-1H-pyrazol-4-yl)isoxazol-4-yl)(isoxazolidin-2-yl)methanone] as the compound, how does the IC50 read?
**A.** The IC50 was 1000 to 10000 nM.

**Q.** With `Nc1c(-c2c(F)cccc2Cl)noc1-c1cnn(-c2cccc(F)c2)c1C(F)(F)F` [Example 117, 3-(2-chloro-6-fluorophenyl)-5-(1-(3-fluorophenyl)-5-(trifluoromethyl)-1H-pyrazol-4-yl)isoxazol-4-amine] as the compound, how does the IC50 read?
**A.** The IC50 was 100 to 1000 nM.

**Q.** For `Fc1ccccc1-n1ncc(-c2onc(-c3c(F)cccc3Cl)c2Br)c1C(F)(F)F` [Example B-26, 4-bromo-3-(2-chloro-6-fluorophenyl)-5-(1-(2-fluorophenyl)-5-(trifluoromethyl)-1H-pyrazol-4-yl)isoxazole], which IC50 is on record?
**A.** Its IC50 is 1000 to 10000 nM.

**Q.** With `CCOC(=O)c1c(-c2c(F)cccc2Cl)noc1-c1cnn(-c2ccccc2NC(C)=O)c1C(F)(F)F` [Example B-1] as the compound, how does the IC50 read?
**A.** The IC50 was 1000 to 10000 nM.
